System: GNS166 cells
Assay: Label-free proteomics differential expression
Assay type: cell-based, human
Description: Proteomic studies were performed by the Proteomics Facility of the CIC bioGUNE by label-free relative quantification on nLC MS/MS. […] In both approaches, the top 20 enriched terms were plotted and the pathways were clustered using divisive hierarchical clustering based on pairwise Jaccard distances.

## C#CCN(Cc1cc2cc(OCCCN3CCCCC3)ccc2n1S(=O)(=O)c1ccccc1)C(=O)CCCCCCC(=O)NO [DDI]
Protein Q9NWX6
  LogFC THG1_HUMAN: -0.1726
Protein Q9NX05
  Direction F120C_HUMAN: Down
  LogFC F120C_HUMAN: -0.4931
Protein Q9NX62
  Direction IMPA3_HUMAN: Down
  LogFC IMPA3_HUMAN: -2.939
Protein Q9NXE4
  Direction NSMA3_HUMAN: Down
  LogFC NSMA3_HUMAN: -1.089
Protein Q9NXH9
  Direction TRM1_HUMAN: Down
  LogFC TRM1_HUMAN: -1.158
Protein Q9NYZ3
  Direction GTSE1_HUMAN: Down
  LogFC GTSE1_HUMAN: -2.523
Protein Q9NZB2
  Direction F120A_HUMAN: Down
  LogFC F120A_HUMAN: -0.8566
Protein Q9NZM1
  Direction MYOF_HUMAN: Down
  LogFC MYOF_HUMAN: -1.514
Protein Q9NZQ3 GN=NCKIPSD
  LogFC SPN90_HUMAN: 0.408
Protein Q9P0M6 GN=MACROH2A2
  LogFC H2AW_HUMAN: -2.056
Protein Q9P258
  Direction RCC2_HUMAN: Down
  LogFC RCC2_HUMAN: -0.788
Protein Q9UBU8
  Direction MO4L1_HUMAN: Down
  LogFC MO4L1_HUMAN: -1.829
Protein Q9UBV2 GN=SEL1L
  LogFC SE1L1_HUMAN: 1.64
Protein Q9UBW8
  Direction CSN7A_HUMAN: Down
  LogFC CSN7A_HUMAN: -0.366
Protein Q9UDW1
  Direction QCR9_HUMAN: Down
  LogFC QCR9_HUMAN: -1.3801
Protein Q9UG63
  Direction ABCF2_HUMAN: Down
  LogFC ABCF2_HUMAN: -0.9684
Protein Q9UGP8 GN=SEC63
  LogFC SEC63_HUMAN: -0.6574
Protein Q9UGR2
  Direction Z3H7B_HUMAN: Down
  LogFC Z3H7B_HUMAN: -0.582
Protein Q9UH17
  Direction ABC3B_HUMAN: Down
  LogFC ABC3B_HUMAN: -2.711
Protein Q9UHG3 GN=PCYOX1
  LogFC PCYOX_HUMAN: 1.78
Protein Q9UHI6
  Direction DDX20_HUMAN: Down
  LogFC DDX20_HUMAN: -1.492
Protein Q9UHQ9 GN=CYB5R1
  LogFC NB5R1_HUMAN: 0.825
Protein Q9UI12 GN=ATP6V1H
  LogFC VATH_HUMAN: 0.8971
Protein Q9UI14 GN=RABAC1
  LogFC PRAF1_HUMAN: -1.449
Protein Q9UJV9 GN=DDX41
  LogFC DDX41_HUMAN: -0.9972
Protein Q9UJX2 GN=CDC23
  LogFC CDC23_HUMAN: -0.6966
Protein Q9UJX3
  Direction APC7_HUMAN: Down
  LogFC APC7_HUMAN: -0.9681
Protein Q9UK39 GN=NOCT
  LogFC NOCT_HUMAN: 0.6965
Protein Q9UK58 GN=CCNL1
  LogFC CCNL1_HUMAN: -1.514
Protein Q9UKI2 GN=CDC42EP3
  LogFC BORG2_HUMAN: 1.338
Protein Q9ULE3 GN=DENND2A
  LogFC DEN2A_HUMAN: -2.086
Protein Q9ULI3
  Direction HEG1_HUMAN: Down
  LogFC HEG1_HUMAN: -2.228
Protein Q9ULL1
  Direction PKHG1_HUMAN: Down
  LogFC PKHG1_HUMAN: -2.254
Protein Q9ULT8
  Direction HECD1_HUMAN: Down
  LogFC HECD1_HUMAN: -1.1597
Protein Q9ULW0
  Direction TPX2_HUMAN: Down
  LogFC TPX2_HUMAN: -2.6733
Protein Q9UMZ2 GN=SYNRG
  LogFC SYNRG_HUMAN: 0.8469
Protein Q9UNF1
  Direction MAGD2_HUMAN: Down
  LogFC MAGD2_HUMAN: -1.225
Protein Q9UNQ2
  Direction DIM1_HUMAN: Down
  LogFC DIM1_HUMAN: -1.324
Protein Q9UPN4
  Direction CP131_HUMAN: Down
  LogFC CP131_HUMAN: -0.9726
Protein Q9UPN9
  Direction TRI33_HUMAN: Down
  LogFC TRI33_HUMAN: -0.5693
Protein Q9UQB8 GN=BAIAP2
  LogFC BAIP2_HUMAN: 0.1397
Protein Q9Y2D5 GN=AKAP2
  LogFC AKAP2_HUMAN: 0.8401
Protein Q9Y2W2
  Direction WBP11_HUMAN: Down
  LogFC WBP11_HUMAN: -1.003
Protein Q9Y3B7 GN=MRPL11
  LogFC RM11_HUMAN: -0.5878
Protein Q9Y3C8
  Direction UFC1_HUMAN: Down
  LogFC UFC1_HUMAN: -1.4452
Protein Q9Y3I1
  Direction FBX7_HUMAN: Down
  LogFC FBX7_HUMAN: -0.6256
Protein Q9Y3Z3 GN=SAMHD1
  LogFC SAMH1_HUMAN: 0.753
Protein Q9Y4A5 GN=TRRAP
  LogFC TRRAP_HUMAN: -1.346
Protein Q9Y4B4
  Direction ARIP4_HUMAN: Down
  LogFC ARIP4_HUMAN: -1.479
Protein Q9Y4H2 GN=IRS2
  LogFC IRS2_HUMAN: 2.2713
Protein Q9Y4P3
  Direction TBL2_HUMAN: Down
  LogFC TBL2_HUMAN: -0.6001
Protein Q9Y5B8 GN=NME7
  LogFC NDK7_HUMAN: 2.17
Protein Q9Y5G0
  Direction PCDGH_HUMAN: Down
  LogFC PCDGH_HUMAN: -2.292
Protein Q9Y5K6 GN=CD2AP
  LogFC CD2AP_HUMAN: 0.4294
Protein Q9Y6E2 GN=BZW2
  LogFC BZW2_HUMAN: 0.8735
Protein Q9Y6K5 GN=OAS3
  LogFC OAS3_HUMAN: -0.7466
Protein Q9Y6W5
  Direction WASF2_HUMAN: Down
  LogFC WASF2_HUMAN: -1.033
Protein Q9Y6Y0
  Direction NS1BP_HUMAN: Down
  LogFC NS1BP_HUMAN: -2.1021
Protein Q9Y6Y8 GN=SEC23IP
  LogFC S23IP_HUMAN: 0.5141
Protein Q9Y223
  Direction GLCNE_HUMAN: Down
  LogFC GLCNE_HUMAN: -0.915
Protein Q9Y251 GN=HPSE
  LogFC HPSE_HUMAN: 0.7253
Protein Q9Y262
  Direction EIF3L_HUMAN: Down
  LogFC EIF3L_HUMAN: -0.4083
Protein Q9Y312
  Direction AAR2_HUMAN: Down
  LogFC AAR2_HUMAN: -1.2504
Protein Q9Y448 GN=KNSTRN
  LogFC SKAP_HUMAN: -1.456
Protein Q9Y490
  Direction TLN1_HUMAN: Down
  LogFC TLN1_HUMAN: -0.5101
Protein Q9Y570 GN=PPME1
  LogFC PPME1_HUMAN: 1.066
Protein Q9Y613 GN=FHOD1
  LogFC FHOD1_HUMAN: 1.204
Protein Q9Y624 GN=F11R
  LogFC JAM1_HUMAN: 1.904
Protein Q9Y625
  Direction GPC6_HUMAN: Down
  LogFC GPC6_HUMAN: -2.082
Protein Q9Y666
  Direction S12A7_HUMAN: Down
  LogFC S12A7_HUMAN: -2.1239
Protein Q00013 GN=MPP1
  LogFC EM55_HUMAN: 0.8133
Protein Q14CX7
  Direction NAA25_HUMAN: Down
  LogFC NAA25_HUMAN: -1.1158
Protein Q29RF7
  Direction PDS5A_HUMAN: Down
  LogFC PDS5A_HUMAN: -1.029
Protein Q53T59 GN=HS1BP3
  LogFC H1BP3_HUMAN: 2.722
Protein Q68CQ7 GN=GLT8D1
  LogFC GL8D1_HUMAN: -1.2539

Reference: publication PMC11971462, “Generation and validation of a novel multitarget small molecule in glioblastoma” (Cell Death & Disease, 2025)
